# Measurements from US5733719A, “Method of making an assay compound” (priority 1995, dated 1998).
# Numbered stars: 1 amine (or outer) side, 2 acyl side, 3 side chain; on linkers, the order of the positions; unused ones are H or OH. Bridge positions count the residues as written; N and C are the ends. Peptide text beside a SMILES is read from it. I, II: the chains in the order shown. Rhodamine110 = O=C1OC2(c3ccc(N[*:1])cc3Oc3cc(N[*:2])ccc32)c2ccccc21
# Tested on: enzyme
# Experiment: Effect of dithioerythritol (DTE) on substrate sensitivity
# Settings: dithioerythritol (DTE) at 1 mM
# Description: Modulators are components used to […] the sensitivity of the enzyme for the leaving group. The modulators speed up or slow down the activity of an enzyme by changing the active site. […] Preferred modulators for particular enzymes are included in Table 1.
smiles,measurement,value
NC(=O)CC[C@H](N)C(=O)N[C@@H](CO)C(=O)Nc1ccc2c(c1)Oc1cc(NC(=O)[C@H](CO)NC(=O)[C@@H](N)CCC(N)=O)ccc1C21OC(=O)c2ccccc21 (relative stereo) [GLN-SER*],effect of DTE on sensitivity,decreases the sensitivity
C[C@H](N)C(=O)N[C@@H](C)C(=O)Nc1ccc2c(c1)Oc1cc(NC(=O)[C@H](C)NC(=O)[C@H](C)N)ccc1C21OC(=O)c2ccccc21 [ALA-ALA*],effect of DTE on sensitivity,decreases the sensitivity
"C[C@H](N)C(=O)N[C@@H](C)C(=O)N[C@@H](C)C(=O)N[C@@H](C)C(=O)Nc1ccc2c(c1)Oc1cc(NC(=O)[C@H](C)NC(=O)[C@H](C)NC(=O)[C@H](C)NC(=O)[C@H](C)N)ccc1C21OC(=O)c2ccccc21 [Ala-Ala-Ala-Ala, (H--L Ala--Ala--Ala--Ala)2 Rho 110-2TFA] (I: H-AAAA / II: H-AAAA; linker I:C-II:C via Rhodamine110)",effect of DTE on sensitivity,decreases the sensitivity
C[C@H](N)C(=O)NCC(=O)Nc1ccc2c(c1)Oc1cc(NC(=O)CNC(=O)[C@H](C)N)ccc1C21OC(=O)c2ccccc21 [Ala-Gly],effect of DTE on sensitivity,does not change the sensitivity
